# Reference: US20250304644A1, “PEPTIDES TRIPLE AGONISTS OF GIP, GLP-1 AND GLP-2” (BAINAN BIOTECH APS, priority 2021, published 2025)
# Read-outs that look alike come from different tables or passages of the source. *1 amine or outer side, *2 acyl side, *3 side chain or, on linkers, in order; H or OH if unused. Where a SMILES comes first, the peptide text is derived from it. Side-chain parts run from the residue outwards. The star is where a group is joined. C18 diacid = O=C(O)CCCCCCCCCCCCCCCCC(=O)*; γGlu = O=C(O)[C@H](CCC(=O)[*:2])N[*:1]; AEEA = NCCOCCOCC(=O)O
# T1: human GIPR (Homo sapiens, UniProt P48546)
# T1 construct: host or cells: COS-7
# T1 sequence (P48546 22-466): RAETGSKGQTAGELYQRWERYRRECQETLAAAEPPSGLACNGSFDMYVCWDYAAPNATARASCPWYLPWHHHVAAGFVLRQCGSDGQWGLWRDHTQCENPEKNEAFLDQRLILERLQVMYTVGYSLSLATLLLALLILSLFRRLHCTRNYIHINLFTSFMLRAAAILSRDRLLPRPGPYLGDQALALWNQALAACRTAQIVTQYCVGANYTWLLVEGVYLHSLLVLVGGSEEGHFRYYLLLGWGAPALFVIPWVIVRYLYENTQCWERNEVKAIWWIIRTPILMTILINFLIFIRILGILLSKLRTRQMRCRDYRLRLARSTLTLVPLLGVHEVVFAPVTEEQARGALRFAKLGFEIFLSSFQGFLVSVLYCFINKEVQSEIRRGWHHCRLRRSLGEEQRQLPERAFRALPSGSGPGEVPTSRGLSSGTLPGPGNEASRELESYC
# T2: human GLP-2R (Homo sapiens, UniProt O95838)
# T2 construct: host or cells: COS-7
# T2 sequence (O95838 1-553): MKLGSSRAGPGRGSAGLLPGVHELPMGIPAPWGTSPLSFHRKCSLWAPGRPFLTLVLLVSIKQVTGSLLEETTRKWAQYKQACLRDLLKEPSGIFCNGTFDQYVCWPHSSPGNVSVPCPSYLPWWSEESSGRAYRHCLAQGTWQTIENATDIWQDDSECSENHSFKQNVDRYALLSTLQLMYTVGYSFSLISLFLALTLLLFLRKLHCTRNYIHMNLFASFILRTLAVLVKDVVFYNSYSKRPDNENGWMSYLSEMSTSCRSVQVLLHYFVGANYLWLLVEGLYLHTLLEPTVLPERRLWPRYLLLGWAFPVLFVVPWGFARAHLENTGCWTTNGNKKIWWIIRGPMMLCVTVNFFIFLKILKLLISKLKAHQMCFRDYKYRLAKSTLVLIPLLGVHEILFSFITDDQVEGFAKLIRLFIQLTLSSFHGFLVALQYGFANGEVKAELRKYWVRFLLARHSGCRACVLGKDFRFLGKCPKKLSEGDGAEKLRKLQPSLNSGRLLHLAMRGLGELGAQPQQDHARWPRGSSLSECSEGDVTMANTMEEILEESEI
# T3: human SNAP-tagged GIPR (Homo sapiens, UniProt P48546)
# T3 construct: host or cells: HEK293A
# T3 sequence (P48546 22-466): T1 sequence (P48546 22-466)
# T4: human SNP-tagged GLP-2R (Homo sapiens, UniProt O95838)
# T4 construct: expressed in transfected cells; host or cells: HEK293A
# T4 sequence (O95838 1-553): T2 sequence (O95838 1-553)
# T5: human SNAP-tagged GLP-2R (human, UniProt O95838 1-553, SNAP tag labeled with Tag-Lite SNAP-Lumi4-Tb)
# T5 sequence (looked up): T2 sequence (O95838 1-553)
# Assays:
# human GIPR = biological target: T1, human GIPR; assay: cAMP assay (HitHunter) in transiently transfected COS-7 cells expressing human GIPR; format: cell-based
# human GLP-2R = biological target: T2, human GLP-2R; assay: cAMP assay (HitHunter) in transiently transfected COS-7 cells expressing human GLP-2R; format: cell-based
# human GLP-1R = biological target: T6, human GLP-1R (Homo sapiens, UniProt P43220); assay: cAMP assay (HitHunter) in transiently transfected COS-7 cells expressing human GLP-1R; format: cell-based
# T6 construct: host or cells: COS-7
# [1] = biological target: human glucagon receptor (GCGR) (Homo sapiens, UniProt P47871); assay: Gs activation measured as cAMP accumulation on human glucagon receptor (FIG. 1 radar plot); format: cell-based; details: read-out: −p Log EC50 on human glucagon receptor (GCGR) (converted)
# From the text: Here, the compounds 20, 21, 22, 28, 30, 31,32, 33, 34, 35 are shown in terms of their potencies in Gs activation, measured as CAMP accumulation, depicted in a radar plot. The numbers refer to −p Log EC50 values. […] The outer rings correspond to higher potencies, the inner rings correspond to lower potencies.
# human SNAP-tagged GIPR = biological target: T3, human SNAP-tagged GIPR; assay: Receptor internalization assay, HEK293A cells expressing human SNAP-tagged GIPR; format: cell-based
# human SNAP-tagged GLP-1R = biological target: T7, human SNAP-tagged GLP-1R (Homo sapiens, UniProt P43220); assay: Receptor internalization assay, HEK293A cells expressing human SNAP-tagged GLP-1R; format: cell-based; details: for Absolute hGLP-1R internalization (AUC): AUC of sigmoid curves up to 1 μM, 60 minutes at 37° C.
# T7 construct: expressed in transfected cells; host or cells: HEK293A
# human SNP-tagged GLP-2R = biological target: T4, human SNP-tagged GLP-2R; assay: Receptor internalization assay, HEK293A cells expressing human SNAP-tagged GLP-2R; format: cell-based; details: for Absolute hGLP-2R internalization (AUC): AUC of sigmoid curves up to 1 μM, 60 minutes at 37° C.
# human SNAP-tagged GLP-2R = biological target: T5, human SNAP-tagged GLP-2R; assay: cell-based or functional assay
# T7 sequence (P43220 24-463): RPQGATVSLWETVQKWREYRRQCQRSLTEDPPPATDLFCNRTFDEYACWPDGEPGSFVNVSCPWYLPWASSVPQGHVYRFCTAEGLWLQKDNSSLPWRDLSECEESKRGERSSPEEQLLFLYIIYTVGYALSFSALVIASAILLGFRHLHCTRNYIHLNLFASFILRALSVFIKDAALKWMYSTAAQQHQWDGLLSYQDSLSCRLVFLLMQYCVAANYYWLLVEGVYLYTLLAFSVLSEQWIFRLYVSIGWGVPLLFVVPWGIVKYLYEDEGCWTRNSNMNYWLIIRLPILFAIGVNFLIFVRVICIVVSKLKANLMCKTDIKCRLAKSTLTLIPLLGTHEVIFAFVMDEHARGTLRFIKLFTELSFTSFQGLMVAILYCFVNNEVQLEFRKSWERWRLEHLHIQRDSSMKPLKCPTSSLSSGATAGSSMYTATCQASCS
# T6 sequence (P43220 24-463): as above
# Chain of human glucagon receptor (GCGR) (P47871 26-477): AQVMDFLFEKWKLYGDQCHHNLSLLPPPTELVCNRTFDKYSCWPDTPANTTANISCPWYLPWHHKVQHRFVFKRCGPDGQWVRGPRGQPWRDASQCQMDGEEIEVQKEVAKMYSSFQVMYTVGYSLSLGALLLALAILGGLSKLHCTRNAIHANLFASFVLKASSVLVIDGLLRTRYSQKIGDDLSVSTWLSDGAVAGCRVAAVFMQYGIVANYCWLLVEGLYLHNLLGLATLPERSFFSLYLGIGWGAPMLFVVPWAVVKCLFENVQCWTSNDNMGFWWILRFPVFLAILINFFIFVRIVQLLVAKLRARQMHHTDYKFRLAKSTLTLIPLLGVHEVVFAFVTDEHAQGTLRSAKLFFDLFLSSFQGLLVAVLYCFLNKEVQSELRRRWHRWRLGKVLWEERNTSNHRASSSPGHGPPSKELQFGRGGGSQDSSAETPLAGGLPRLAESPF
"Emax (human GIPR; COS-7, normalized to highest concentration of the endogenous ligand, read-out: Efficacy GIPR (Emax))","Emax (human GLP-2R; COS-7, normalized to highest concentration of the endogenous ligand, read-out: Efficacy GLP-2R (Emax))","Emax (human GLP-1R; COS-7, normalized to highest concentration of the endogenous ligand, read-out: Efficacy GLP-1R (Emax))","Absolute hGIPR internalization (AUC) (human SNAP-tagged GIPR; AUC of sigmoid curves up to 1 μM, 60 minutes at 37° C.)",Absolute hGLP-2R internalization (AUC) (human SNAP-tagged GLP-2R),Molecule,"Emax (human GIPR; COS-7, read-out: Efficacy GIPR (Emax))","Emax (human GLP-2R; COS-7, read-out: Efficacy GLP-2R (Emax))","Emax (human GLP-1R; COS-7, read-out: Efficacy GLP-1R (Emax))",EC50 [1],Absolute hGIPR internalization (AUC) (human SNAP-tagged GIPR),Relative hGIPR internalization (%) (human SNAP-tagged GIPR),Absolute hGLP-1R internalization (AUC) (human SNAP-tagged GLP-1R),Relative hGLP-1R internalization (%) (human SNAP-tagged GLP-1R; relative to hGLP-1 = 100),Absolute hGLP-2R internalization (AUC) (human SNP-tagged GLP-2R),Relative hGLP-2R internalization (%) (human SNP-tagged GLP-2R; relative to native ligand = 100)
,,,,,CC[C@H](C)[C@H](NC(=O)[C@H](Cc1ccccc1)NC(=O)[C@H](CC(=O)O)NC(=O)[C@H](CCCNC(=N)N)NC(=O)[C@H](C)NC(=O)[C@H](C)NC(=O)[C@H](CC(C)C)NC(=O)[C@H](CCCCNC(=O)COCCOCCNC(=O)COCCOCCNC(=O)CC[C@H](NC(=O)CCCCCCCCCCCCCCCCC(=O)O)C(=O)O)NC(=O)[C@H](CC(=O)O)NC(=O)[C@H](CC(C)C)NC(=O)C(C)(C)NC(=O)[C@@H](NC(=O)[C@H](CO)NC(=O)[C@H](Cc1ccc(O)cc1)NC(=O)[C@H](CC(=O)O)NC(=O)[C@H](CO)NC(=O)[C@@H](NC(=O)[C@H](Cc1ccccc1)NC(=O)[C@@H](NC(=O)CNC(=O)[C@H](CC(=O)O)NC(=O)[C@H](C)NC(=O)[C@@H](N)Cc1c[nH]cn1)[C@@H](C)O)[C@@H](C)CC)[C@@H](C)O)C(=O)N[C@@H](CC(N)=O)C(=O)N[C@@H](Cc1c[nH]c2ccccc12)C(=O)N[C@@H](CC(C)C)C(=O)N[C@H](C(=O)N[C@@H](CCC(N)=O)C(=O)N[C@H](C(=O)N[C@@H](CCCCN)C(=O)NCC(=O)N[C@@H](CCCCN)C(=O)N[C@@H](CCCCN)C(=O)O)[C@@H](C)O)[C@@H](C)CC [Compound 31],85%,79%,89%,> 0.1 µM,16.0,43%,4.9,5.8%,30.6,63.0%
103%,91%,97%,14.7,,CC[C@H](C)[C@H](NC(=O)[C@H](Cc1ccccc1)NC(=O)[C@H](CC(=O)O)NC(=O)[C@H](CCCNC(=N)N)NC(=O)[C@H](C)NC(=O)[C@H](C)NC(=O)[C@H](CC(C)C)NC(=O)[C@H](CC(N)=O)NC(=O)[C@H](CC(=O)O)NC(=O)[C@H](CC(C)C)NC(=O)[C@@H](NC(=O)[C@@H](NC(=O)[C@H](CO)NC(=O)[C@H](Cc1ccc(O)cc1)NC(=O)[C@H](CC(=O)O)NC(=O)[C@H](CO)NC(=O)[C@@H](NC(=O)[C@H](Cc1ccccc1)NC(=O)[C@@H](NC(=O)CNC(=O)[C@H](CC(=O)O)NC(=O)[C@H](C)NC(=O)[C@@H](N)Cc1c[nH]cn1)[C@@H](C)O)[C@@H](C)CC)[C@@H](C)O)[C@@H](C)CC)C(=O)N[C@@H](CC(N)=O)C(=O)N[C@@H](Cc1c[nH]c2ccccc12)C(=O)N[C@@H](CC(C)C)C(=O)N[C@H](C(=O)N[C@@H](CCC(N)=O)C(=O)N[C@H](C(=O)N[C@@H](CCCCN)C(=O)NCC(=O)N[C@@H](CCCCN)C(=O)N[C@@H](CCCCN)C(=O)N[C@@H](CCCCNC(=O)COCCOCCNC(=O)COCCOCCNC(=O)CC[C@H](NC(=O)CCCCCCCCCCCCCCCCC(=O)O)C(=O)O)C(=O)O)[C@@H](C)O)[C@@H](C)CC [Compound 34] (H-HADGTFISDYSTILDNLAARDFINWLIQTKGKKK([AEEA-AEEA-γGlu-C18 diacid])-OH; N-terminus assumed),,,,,,,6.0,,8.0,
,,,,48.6 AUC,HADGSFSDEMNTILDNLAARDFINWLIQTKITD (ligand) [hGLP-2],,,,,,,,,,
